Source: patent publication US8362070B2, “Application of puerarin in the preparation of P2X3 mediated drugs for pain/nervous system diseases” (Nanchang University, priority 2009, dated 2013)

Columns and labels:
[1] = tested on: rats that suffer from superficial second degree foot burn; experiment: Mechanical hyperalgesia (mechanical withdrawal threshold) in rats with foot burn; type: in vivo, rat; conditions: for mechanical withdrawal threshold (MWT) in comparison to group III (burn) / mechanical withdrawal threshold (MWT) after 72 hours or 96 hours: superficial second degree foot burn + drug; for mechanical withdrawal threshold (MWT) in comparison to group III (burn): p<0.01; for mechanical withdrawal threshold (MWT) after 72 hours or 96 hours: vs groups I, II, V p>0.05
Text: Male SD rats, 220-250 g, 60 rats were included, which were provided by the Department of Experimental Animals from the Medical College of Nanchang University, and the animals were divided into different groups at random. Group I was the group of sham burn in skin of feet; group II was the group of puerarin injection+first degree or superficial second degree burn in skin of feet; group III was the group of physiological saline+first degree or superficial second degree burn in skin of feet; group IV was the group of sham burn in skin of back; group V was the group of puerarin injection+first degree or superficial second degree burn in skin of back; group VI was the group of physiological saline+first degree or superficial second degree burn in skin of back. Puerarin injection was dissolved in physiological saline and the concentration was 50 mg/mL. vena caudalis injection of 4 mL/kg physiological saline was carried out for the rats in group III and […] 0.5 h before burn, and the injection was carried out once a day until the termination of the test; […], and the injection was carried out once a day until the termination of the test; skin of feet or back of the rats from group I and group IV (the sham burn group) were immersed in warm water of 37° C. for 8 seconds. After the rats were anesthetized by ether, their right posterior feet were immersed in hot water of 70° C. for 5 seconds or 8 seconds, then they were raised in separate cages after burn. The mechanical withdrawal threshold and the thermal withdrawal threshold in their right posterior feet were measured respectively before burn (Oh) and 1, 24, 48, 72, 96, 120, 144 hours after burn (the room temperature was maintained at 22±0.5° C.). BME-403 Von Frey fine thread was used to detect the mechanical withdrawal threshold (MWT). The rats were kept in transparent organic glass box (22×12×22 cm^3), and the bottom of the organic glass box was made of wire netting of 1×1 cm^2. The rats were raised in the laboratory after operations and they were kept in the organic glass box for accommodation for 15 min before the detection. The bending forces were 0.13, 0.20, 0.33, 0.60, 1.30, 3.60, 5.00, 7.30, 9.90, 20.1 g respectively. Each test was performed for ten times from the smallest bending force until the frequency of withdrawal was higher than 5/10, namely 50% reaction threshold (that was the value for inducing five reactions in ten tests). The biggest bending force was 20.1 g and bending forces≧20.1 g were recorded as 20.1 g. The interval between two stimulations was at least more than 15 seconds until the stimulation-induced reactions (such as licking feet and throwing legs) completely disappeared. BME-403 Von Frey fine thread was used to determine the mechanical withdrawal threshold (MWT). The rats were kept in transparent organic glass box (22×12×22 cm^3), and the bottom of the organic glass box was made of wire netting of 1×1 cm^2. The rats were raised in the laboratory after operations and they were kept in the organic glass box for accommodation for 15 minutes before the detection. The bending forces were 0.13, 0.20, 0.33, 0.60, 1.30, 3.60, 5.00, 7.30, 9.90, 20.1 g respectively, and bending forces≧20.1 g were recorded as 20.1 g. […]

P2X3 mRNA = experiment: In situ hybridization of P2X3 mRNA in dorsal root ganglion of burn rats; type: in vivo, rat; conditions: n=10
Experimental: SD rats (their body weights were 200±20 g) were randomly divided into the group I (sham back burn), the group II (Puerarin, intraperitoneal injection), the group III (superficial second degree back burn), the group IV (superficial second degree back burn+puerarin), the group V (control) and the group VI (superficial second degree back burn+Indocin). The rats in the group IV (superficial second degree back burn+puerarin) were subjected to intraperitoneal injection of Puerarin (100 mg/kg) everyday for continuous three days 30 minutes before and after burn. The rats in the group VI (superficial second degree back burn+Indocin) were subjected to intraperitoneal injection of idomethine (4 mg/kg/d) everyday for continuous three days 30 minutes before burn and after burn. Results of in situ hybridization were subjected to analysis by using Hmias-2000 high-resolution color medical image analysis system for the detection of P2X3 receptor expression in dorsal root ganglion (DRG) in burn position of rats.

[2] = superficial second degree back burn + drug (puerarin 100 mg/kg i.p., idomethine 4 mg/kg/d i.p., three days), burn 1.15±0.04, control 0.99±0.02

Row | Structure (SMILES) | mechanical withdrawal threshold (MWT) in comparison to group III (burn) [1] | mechanical withdrawal threshold (MWT) after 72 hours or 96 hours [1] | average optical density (P2X3 mRNA, in situ hybridization, DRG) (P2X3 mRNA; [2]) | mechanical withdrawal threshold, comparison among sham, puerarin alone and control ([1]; puerarin alone i.p., no burn, p>0.05) | average optical density (P2X3 mRNA, in situ hybridization, DRG) (P2X3 mRNA; puerarin alone i.p., no burn)
1 | COc1ccc2c(c1)c(CC(=O)O)c(C)n2C(=O)c1ccc(Cl)cc1 [Indocin, Indometacin] | significantly decreased | almost recovered to normal level | 1.06±0.05 | – | –
2 | O=c1c(-c2ccc(O)cc2)coc2c([C@@H]3O[C@H](CO)[C@@H](O)[C@H](O)[C@H]3O)c(O)ccc12 [puerarin] | significantly decreased | almost recovered to normal level | 1.01±0.03 | no significant difference | 0.97±0.01
